Measurements as given in publication PMC10810011 (Expert opinion on drug delivery, 2023).

Tests used:
alpha2A adrenergic = molecular target: T1, alpha2A adrenergic (Homo sapiens, UniProt P08913); assay: InVEST radioligand filter binding, alpha2A adrenergic; settings: M13 20 μM, 100 = no effect
T1 sequence (P08913 1-465): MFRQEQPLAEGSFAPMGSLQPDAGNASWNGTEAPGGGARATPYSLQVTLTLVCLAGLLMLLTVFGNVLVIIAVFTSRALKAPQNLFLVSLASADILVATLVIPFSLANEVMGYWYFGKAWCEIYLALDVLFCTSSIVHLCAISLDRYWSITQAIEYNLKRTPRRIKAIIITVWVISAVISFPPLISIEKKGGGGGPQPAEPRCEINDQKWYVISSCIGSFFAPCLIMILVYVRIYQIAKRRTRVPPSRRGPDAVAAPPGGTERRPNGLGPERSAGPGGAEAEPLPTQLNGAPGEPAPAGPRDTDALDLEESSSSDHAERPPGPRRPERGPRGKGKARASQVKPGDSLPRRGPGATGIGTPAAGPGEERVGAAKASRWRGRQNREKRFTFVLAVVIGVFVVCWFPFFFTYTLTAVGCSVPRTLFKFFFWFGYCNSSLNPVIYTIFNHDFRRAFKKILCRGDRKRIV

beta1 adrenergic = beta1 adrenergic (Homo sapiens, UniProt P08588); assay: InVEST radioligand filter binding, beta1 adrenergic; settings: M13 20 μM, 100 = no effect
Muscarinic M1 = Muscarinic M1 (Homo sapiens, UniProt P11229); type: binding; settings: M13 20 μM, 100 = no effect
Opioid kappa = Opioid kappa (Homo sapiens, UniProt P41145); assay: InVEST radioligand filter binding, Opioid kappa; settings: M13 20 μM, 100 = no effect
5-HT1A = 5-HT1A (Homo sapiens, UniProt P08908); assay: InVEST radioligand filter binding, 5-HT1A; settings: M13 20 μM, 100 = no effect
5-HT1B = 5-HT1B (Homo sapiens, UniProt P28222); assay: InVEST radioligand filter binding, 5-HT1B; settings: 5-HT1B, M13 20 μM, 100 = no effect
5-HT2A = 5-HT2A (Homo sapiens, UniProt P28223); assay: InVEST radioligand filter binding, 5-HT2A; settings: M13 20 μM, 100 = no effect
5-HT2B = 5-HT2B (Homo sapiens, UniProt P41595); assay: InVEST radioligand filter binding, 5-HT2B; settings: M13 20 μM, 100 = no effect
PDE4A = PDE4A (Homo sapiens, UniProt P27815); assay: InVEST enzymatic activity, PDE4A; type: biochemical; settings: M13 20 μM, 100 = no effect
[1] = Chemical stability in acidic PBS; type: physicochemical; settings: acidic PBS pH 5.0 or 3.0, 37 °C, 2 h, HPLC
[2] = Kinetic solubility in pure water; type: physicochemical; settings: room temperature, 24 h
Thermodynamic = type: physicochemical; settings: pure water, room temperature, 24 h
Log D7.4 shake-flask = type: physicochemical; settings: 1-octanol/phosphate buffer pH 7.4, shake-flask, room temperature
CD-1 mice = assay: Single-dose maximum tolerated dose; type: in vivo, mouse
HIEC-6 cells = assay: MTT cytotoxicity, 2D HIEC-6; type: cell-based, human; settings: HIEC-6 (normal intestinal), 24 h
3D Caco-2/BBe cells = assay: Cytotoxicity in 3D cultured Caco-2/BBe cells; type: cell-based, human
Caco-2/BBe cells [3] = assay: Cancer-related protein expression, Human XL oncology array; type: cell-based; settings: Caco-2/BBe lysates, 24 h; free M13 5 μg/mL, M13-NL 10 μg/mL (5 μg/mL M13)
Caco-2/BBe cells [4] = assay: Cell cycle control phospho-antibody array; type: cell-based, human; settings: 24 h, p < 0.01
AOM/DSS-induced CAC mice = assay: AOM/DSS-induced CAC mouse model; type: in vivo; settings: oral 5 mg/kg every 2 days, day 60
Opioid delta = Opioid delta (Homo sapiens, UniProt P41143); settings: M13 20 μM, 100 = no effect
[5] = system: Salmonella typhimurium TA98; assay: Ames test, strain TA98; settings: +S9 or -S9

beta1 adrenergic, sequence (P08588 whole entry): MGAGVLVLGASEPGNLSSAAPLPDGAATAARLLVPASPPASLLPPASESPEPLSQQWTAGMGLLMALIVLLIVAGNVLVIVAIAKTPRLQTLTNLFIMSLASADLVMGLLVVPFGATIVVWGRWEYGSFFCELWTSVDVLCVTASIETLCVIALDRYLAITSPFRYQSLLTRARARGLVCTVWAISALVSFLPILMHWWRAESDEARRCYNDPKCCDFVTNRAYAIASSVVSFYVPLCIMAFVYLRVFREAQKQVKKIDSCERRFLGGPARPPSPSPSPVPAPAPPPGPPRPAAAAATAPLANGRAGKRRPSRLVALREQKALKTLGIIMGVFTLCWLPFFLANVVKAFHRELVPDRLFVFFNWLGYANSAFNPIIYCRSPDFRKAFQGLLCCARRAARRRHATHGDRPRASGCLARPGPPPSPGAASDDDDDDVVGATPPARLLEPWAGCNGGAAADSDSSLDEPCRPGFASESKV
Opioid delta, sequence (P41143 whole entry): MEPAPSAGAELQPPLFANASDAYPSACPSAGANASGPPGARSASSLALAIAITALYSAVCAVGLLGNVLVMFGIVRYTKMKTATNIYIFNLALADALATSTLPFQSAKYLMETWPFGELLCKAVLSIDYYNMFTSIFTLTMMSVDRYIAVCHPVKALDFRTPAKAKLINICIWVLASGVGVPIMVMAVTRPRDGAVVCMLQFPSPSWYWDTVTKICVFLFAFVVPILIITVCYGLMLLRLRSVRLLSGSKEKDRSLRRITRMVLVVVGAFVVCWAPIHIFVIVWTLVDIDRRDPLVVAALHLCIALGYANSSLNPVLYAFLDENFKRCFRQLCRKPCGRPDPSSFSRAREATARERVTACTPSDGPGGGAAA
Opioid kappa, sequence (P41145 whole entry): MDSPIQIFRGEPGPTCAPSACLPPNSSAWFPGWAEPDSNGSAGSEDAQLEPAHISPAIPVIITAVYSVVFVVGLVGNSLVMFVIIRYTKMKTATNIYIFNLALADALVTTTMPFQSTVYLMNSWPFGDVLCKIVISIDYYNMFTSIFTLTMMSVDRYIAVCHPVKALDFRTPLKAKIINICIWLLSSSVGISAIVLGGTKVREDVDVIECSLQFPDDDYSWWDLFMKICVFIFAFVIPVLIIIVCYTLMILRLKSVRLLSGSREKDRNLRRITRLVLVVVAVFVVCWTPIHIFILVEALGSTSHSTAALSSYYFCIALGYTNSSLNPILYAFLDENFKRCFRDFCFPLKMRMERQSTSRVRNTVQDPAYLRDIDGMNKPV
5-HT2B, sequence (P41595 whole entry): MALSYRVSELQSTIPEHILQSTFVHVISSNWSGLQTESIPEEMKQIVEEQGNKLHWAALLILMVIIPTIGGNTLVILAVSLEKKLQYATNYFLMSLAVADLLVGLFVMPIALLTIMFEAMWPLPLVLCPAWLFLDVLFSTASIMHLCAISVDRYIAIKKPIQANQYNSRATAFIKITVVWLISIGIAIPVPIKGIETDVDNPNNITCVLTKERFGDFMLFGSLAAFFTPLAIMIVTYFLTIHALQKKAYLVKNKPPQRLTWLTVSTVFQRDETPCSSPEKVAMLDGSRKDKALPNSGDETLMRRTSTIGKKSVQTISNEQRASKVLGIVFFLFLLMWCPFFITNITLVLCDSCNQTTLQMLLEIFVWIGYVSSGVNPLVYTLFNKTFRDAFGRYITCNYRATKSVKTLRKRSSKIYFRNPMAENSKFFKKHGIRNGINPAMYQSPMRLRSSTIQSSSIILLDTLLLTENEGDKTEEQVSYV
Muscarinic M1, sequence (P11229 whole entry): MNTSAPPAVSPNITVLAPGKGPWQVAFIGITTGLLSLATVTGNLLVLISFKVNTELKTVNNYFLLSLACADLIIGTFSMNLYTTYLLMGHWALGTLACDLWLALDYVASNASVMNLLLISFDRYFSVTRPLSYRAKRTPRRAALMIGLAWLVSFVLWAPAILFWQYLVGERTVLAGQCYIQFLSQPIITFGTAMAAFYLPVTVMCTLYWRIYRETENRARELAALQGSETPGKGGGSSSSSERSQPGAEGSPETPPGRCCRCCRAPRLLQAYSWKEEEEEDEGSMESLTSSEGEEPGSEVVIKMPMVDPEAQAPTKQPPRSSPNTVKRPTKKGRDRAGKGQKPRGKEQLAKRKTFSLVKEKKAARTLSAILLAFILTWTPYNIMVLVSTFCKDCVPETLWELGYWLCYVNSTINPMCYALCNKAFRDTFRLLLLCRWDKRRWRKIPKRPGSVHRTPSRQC
PDE4A, sequence (P27815 whole entry): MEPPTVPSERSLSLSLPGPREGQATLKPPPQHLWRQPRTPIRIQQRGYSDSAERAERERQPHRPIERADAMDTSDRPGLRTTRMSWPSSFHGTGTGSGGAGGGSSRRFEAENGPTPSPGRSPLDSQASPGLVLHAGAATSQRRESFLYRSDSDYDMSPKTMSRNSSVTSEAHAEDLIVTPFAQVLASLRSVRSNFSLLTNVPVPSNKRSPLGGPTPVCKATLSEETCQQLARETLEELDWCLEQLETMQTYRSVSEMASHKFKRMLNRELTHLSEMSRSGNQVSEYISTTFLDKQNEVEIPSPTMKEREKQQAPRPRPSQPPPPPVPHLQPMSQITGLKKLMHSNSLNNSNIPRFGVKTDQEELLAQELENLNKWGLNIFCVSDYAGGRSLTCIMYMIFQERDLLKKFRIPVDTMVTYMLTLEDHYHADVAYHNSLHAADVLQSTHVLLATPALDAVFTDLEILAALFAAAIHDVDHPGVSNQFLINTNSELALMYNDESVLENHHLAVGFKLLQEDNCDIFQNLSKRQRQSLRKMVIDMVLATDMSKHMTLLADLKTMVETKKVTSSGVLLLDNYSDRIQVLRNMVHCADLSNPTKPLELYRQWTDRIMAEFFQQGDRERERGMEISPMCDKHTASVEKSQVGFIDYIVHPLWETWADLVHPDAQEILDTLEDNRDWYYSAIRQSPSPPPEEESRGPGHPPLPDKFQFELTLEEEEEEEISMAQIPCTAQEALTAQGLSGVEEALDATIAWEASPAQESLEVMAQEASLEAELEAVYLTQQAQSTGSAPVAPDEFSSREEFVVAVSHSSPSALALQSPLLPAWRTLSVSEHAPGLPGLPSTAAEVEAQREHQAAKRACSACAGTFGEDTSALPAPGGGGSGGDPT
5-HT1B, sequence (P28222 whole entry): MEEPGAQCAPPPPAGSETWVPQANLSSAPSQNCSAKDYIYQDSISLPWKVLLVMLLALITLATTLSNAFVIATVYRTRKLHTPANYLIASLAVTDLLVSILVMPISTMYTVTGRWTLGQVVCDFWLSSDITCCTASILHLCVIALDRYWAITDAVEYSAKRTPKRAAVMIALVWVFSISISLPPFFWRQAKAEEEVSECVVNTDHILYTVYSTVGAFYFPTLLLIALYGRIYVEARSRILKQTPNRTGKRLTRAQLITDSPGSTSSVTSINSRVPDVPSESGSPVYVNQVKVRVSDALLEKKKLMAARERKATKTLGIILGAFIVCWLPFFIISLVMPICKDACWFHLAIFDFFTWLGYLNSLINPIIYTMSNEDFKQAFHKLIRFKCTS
5-HT1A, sequence (P08908 whole entry): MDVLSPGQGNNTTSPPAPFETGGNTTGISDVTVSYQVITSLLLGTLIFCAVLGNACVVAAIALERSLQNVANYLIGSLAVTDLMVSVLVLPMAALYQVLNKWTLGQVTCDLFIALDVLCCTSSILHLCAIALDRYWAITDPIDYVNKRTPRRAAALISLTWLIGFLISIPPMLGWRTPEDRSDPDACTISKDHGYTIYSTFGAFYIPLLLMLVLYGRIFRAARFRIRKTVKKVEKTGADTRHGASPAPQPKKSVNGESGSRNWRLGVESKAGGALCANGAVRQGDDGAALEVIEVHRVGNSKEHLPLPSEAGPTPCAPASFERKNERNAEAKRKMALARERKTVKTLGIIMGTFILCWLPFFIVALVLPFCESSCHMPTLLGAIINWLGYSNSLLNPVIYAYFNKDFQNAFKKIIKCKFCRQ
5-HT2A, sequence (P28223 whole entry): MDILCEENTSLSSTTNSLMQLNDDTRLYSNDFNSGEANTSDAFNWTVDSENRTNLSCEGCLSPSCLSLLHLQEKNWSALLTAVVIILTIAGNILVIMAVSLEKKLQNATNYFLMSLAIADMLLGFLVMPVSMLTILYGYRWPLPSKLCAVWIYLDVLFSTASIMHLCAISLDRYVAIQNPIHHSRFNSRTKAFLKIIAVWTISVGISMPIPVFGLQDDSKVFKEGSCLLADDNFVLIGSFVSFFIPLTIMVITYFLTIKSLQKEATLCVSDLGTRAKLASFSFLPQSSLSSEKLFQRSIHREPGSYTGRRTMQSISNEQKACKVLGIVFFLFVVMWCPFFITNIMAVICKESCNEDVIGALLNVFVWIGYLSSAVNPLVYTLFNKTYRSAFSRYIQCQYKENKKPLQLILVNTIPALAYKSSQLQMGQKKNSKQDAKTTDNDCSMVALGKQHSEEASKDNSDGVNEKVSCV

CCCCCC(CC(=O)CCc1ccc(O)c(OC)c1)SC[C@H](NC(=O)CC[C@H](N)C(=O)O)C(=O)NCC(=O)O (stereo partly shown) [M13, 5-glutathione-6-shogaol]
% Activity Data 1 (alpha2A adrenergic; repetition 1): 92%
% Activity Data 2 (alpha2A adrenergic; repetition 2): 100%
% Activity Data 1 (beta1 adrenergic; repetition 1): 120%
% Activity Data 2 (beta1 adrenergic; repetition 2): 116%
% Activity Data 1 (Muscarinic M1; repetition 1): 111%
% Activity Data 2 (Muscarinic M1; repetition 2): 113%
% Activity Data 1 (Opioid kappa; repetition 1): 95%
% Activity Data 2 (Opioid kappa; repetition 2): 93%
% Activity Data 1 (5-HT1A; repetition 1): 102%
% Activity Data 2 (5-HT1A; repetition 2): 100%
% Activity Data 1 (5-HT1B; repetition 1): 100%
% Activity Data 2 (5-HT1B; repetition 2): 102%
% Activity Data 1 (5-HT2A; repetition 1): 99%
% Activity Data 2 (5-HT2A; repetition 2): 98%
% Activity Data 1 (5-HT2B; repetition 1): 109%
% Activity Data 2 (5-HT2B; repetition 2): 113%
% Activity Data 1 (PDE4A; repetition 1): 93%
% Activity Data 2 (PDE4A; repetition 2): 94%
relative contents of M13 before and after incubation [1]: consistent
kinetic solubility [2]: > 200 µM
thermodynamic (or equilibrium) solubility (Thermodynamic): 1390.03 µM
LogD7.4 (Log D7.4 shake-flask): −1.75
pathological sign in the anatomical organs (CD-1 mice; single oral dose 1000 mg/kg, day 7): no pathological sign
body weight change, spleen-to-body weight ratio, blood physiological and biochemical indexes (CD-1 mice; single oral dose 1000 mg/kg, day 7, vs PBS control): no significant difference
death during the experiment (CD-1 mice; single oral dose 1000 mg/kg, female CD-1 mice, 7 days): did not observe any death
maximum tolerated dose (CD-1 mice; single oral dose, mice): > 1000 mg/kg
IC50 (HIEC-6 cells): > 100 µM
sizes of 3D cell spheres (3D Caco-2/BBe cells; 11 days culture, regardless of the group): did not change significantly
green fluorescence intensity of 3D cell spheres (live cells) vs NC group (3D Caco-2/BBe cells; M13 ≥ 80 μM, day 11, p < 0.05): significantly lower
BCL-x expression vs. Control and statistical significance (Caco-2/BBe cells [3]): Down-regulation, ^*
CCL20/MIP-3α expression vs. Control and statistical significance (Caco-2/BBe cells [3]): Down-regulation, ^**
CEACAM-5 expression vs. Control and statistical significance (Caco-2/BBe cells [3]): Down-regulation, ^*
CXCL8/IL-8 expression vs. Control and statistical significance (Caco-2/BBe cells [3]): Down-regulation, ^*
CapG expression vs. Control and statistical significance (Caco-2/BBe cells [3]): Down-regulation, ^*
Cathepsin B expression vs. Control and statistical significance (Caco-2/BBe cells [3]): Down-regulation, ^*
Cathepsin D expression vs. Control and statistical significance (Caco-2/BBe cells [3]): Down-regulation, ^*
Cathepsin S expression vs. Control and statistical significance (Caco-2/BBe cells [3]): Down-regulation, ^**
Dkk-1 expression vs. Control and statistical significance (Caco-2/BBe cells [3]): Down-regulation, ^**
EGFR expression vs. Control and statistical significance (Caco-2/BBe cells [3]): Down-regulation, ^*
Enolase 2 expression vs. Control and statistical significance (Caco-2/BBe cells [3]): Down-regulation, ^*
ErbB2/Her2 expression vs. Control and statistical significance (Caco-2/BBe cells [3]): Down-regulation, ^**
ErbB3/Her3 expression vs. Control and statistical significance (Caco-2/BBe cells [3]): Down-regulation, ^***
Galectin-3 expression vs. Control and statistical significance (Caco-2/BBe cells [3]): Down-regulation, *
HNF-3β expression vs. Control and statistical significance (Caco-2/BBe cells [3]): Down-regulation, ^**
HO-1/HMOX1 expression vs. Control and statistical significance (Caco-2/BBe cells [3]): Down-regulation, ^***
P27/Kip1 expression vs. Control and statistical significance (Caco-2/BBe cells [3]): Down-regulation, ^**
PDGF-AA expression vs. Control and statistical significance (Caco-2/BBe cells [3]): Down-regulation, ^*
Progranulin expression vs. Control and statistical significance (Caco-2/BBe cells [3]): Down-regulation, ^*
Prostasin/Prss8 expression vs. Control and statistical significance (Caco-2/BBe cells [3]): Down-regulation, ^*
Survivin expression vs. Control and statistical significance (Caco-2/BBe cells [3]): Down-regulation, ^***
TROP1/EpCAM expression vs. Control and statistical significance (Caco-2/BBe cells [3]): Down-regulation, ^***
CDC25A expression compared with the control and NL groups (Caco-2/BBe cells [4]): down-regulated
phosphorylated CDC25A (p-CDC25A) compared with the control and NL groups (Caco-2/BBe cells [4]): down-regulated
number of tumors compared with the AOM/DSS group (AOM/DSS-induced CAC mice): failed to reduce
% Activity Data 1 (Opioid delta; repetition 1): 98%
% Activity Data 2 (Opioid delta; repetition 2): 104%
number of revertant colonies ([5]; TA98, 156 ~ 5000 μg/plate): did not increase
mutation factor ([5]; TA98, all concentrations 156 ~ 5000 μg/plate): less than 1.6
